Reference: patent US20250002991A1, “METHODS AND COMPOSITIONS FOR GENOME EDITING” (THE JOHNS HOPKINS UNIVERSITY, priority 2021, published 2025)

Assays:
[1] = test system: MRE11 recruitment at the Cas9 target site (VEGFA site 3 on-target site; HEK293T, K562); experiment: MRE11 ChIP-qPCR at Cas9 target sites after exposure to DNA repair inhibitors; assay type: cell-based, human; conditions: for MRE11 recruitment at the target site (ChIP-qPCR): Cas9 with gRNA targeting VEGFA site 3, HEK293T, 12 hours, 1 μM KU-60648, 20 µM Nu7026, 10 μM Ku-55933, 1 μM Scr7, 10 μM Olaparib
Excerpt: (§1) The supernatant was decanted.

[2] = test system: MRE11 at Cas9 PCSK9 target sites in mouse liver; experiment: DISCOVER-Seq+ in liver of mice given adenovirus Cas9/gRNA targeting PCSK9; assay type: in vivo, mouse (C57BL/6J)
Method: For in vivo gene delivery, 8-10 week old mice were anesthetized with 2.5% isofluorane/oxygen mixture. Mice received a single retro-orbital injection of 1×10^9 infectious adenoviral particles (Ad-Cas9-U6-mPCSK9-sgRNA) in 100 μL sterile saline. Immediately following, mice received intraperitoneal delivery of KU-60648 dosed at 25 mg/kg (or vehicle only) in 100 μL of citrate buffer, or 100 μL of citrate buffer vehicle. Mice received a dose of KU-60648 or vehicle every 12 hrs via intraperitoneal injection.
At the experimental endpoint of 12 h, mice were anesthetized with isofluorane and euthanized via cervical dislocation. Liver tissue was harvested, washed 3× in 2 mL PBS with 1× protease inhibitor (Halt™ Protease Inhibitor Cocktail, Thermo), then disrupted the tissue in 1 mL PBS with 1× protease inhibitor using a loose-fitting Dounce homogenizer. For MRE11 ChIP-seq, homogenized tissue was placed on ice and used immediately.
as §1

[3] = test system: 53BP1 and BRCA1 foci in U2OS cells stably expressing Cas9-EGFP; experiment: Super-resolution STED microscopy of 53BP1 and BRCA1 repair foci after Cas9-induced DNA breaks; assay type: cell-based
Method: U2OS cells stably expressing Cas9-EGFP cells were seeded onto 35-mm, glass bottom dishes and transfected with mtgRNAs for 12-24 hrs. Cleavage was activated by UV light for 1 minute. To fix cells, 4% of pre-warmed paraformaldehyde in 1×PBS was used for 10 min. After rinsing 3 times with 1×PBS, cell membrane permeabilization was done with Triton-X used for 10 min. Then, cells 2% w/v BSA in 1×PBS was used for blocking for 1 hr and at room temperature. The primary antibodies, mouse anti-BRCA1 (D-9 sc-6954 Santa Cruz) and anti-53bpl (Abcam, ab172580), were diluted (1:500) in 1×PBS and directly added into the imaging dish. After 1 hr incubation, the primary antibody was removed, and the sample was washed with 1×PBS three times. The samples were then incubated for 30 minutes with the secondary antibodies Alexa-594 and Atto-647N diluted (1:1000) in 1×PBS. Finally, the sample was rinsed three times and mounted with Prolong Diamond mounting media (Thermo Fisher Scientific) overnight.
All STED images were obtained using a home-built two-color STED microscope (Han and Ha, 2015: Ma and Ha, 2019). In short, a femtosecond laser beam with a repetition rate of 80 MHz from a Ti: Sapphire laser head (Mai Tai HP, Spectra-Physics) is split into two parts: one part produces an excitation beam coupled into a photonic crystal fiber (Newport) for wide-spectrum light generation. […]

[4] = test system: MRE11 at Cas9 on- and off-target sites in K562 cells; experiment: MRE11 ChIP-seq with BLENDER off-target detection (DISCOVER-Seq+) in K562 cells; assay type: cell-based, human
Excerpt: as §1

Cas9 editing of ACTB = experiment: Sequencing of insertion-deletion mutations (indels) after Cas9 targeting ACTB; assay type: cell-based; conditions: 48 hours after Cas9 editing; especially +1 insertions reduced in favor of larger -3 deletions
Method: Genomic DNA was extracted using the DNeasy Blood & Tissue Kit (Qiagen 69504) following manufacturer instructions. Approximately 1 million cells were used from cell lines and iPSCs. Approximately 10-20 μL of mouse liver cell suspension was used out of 1.5 mL total, and the genome extraction protocol included the Buffer ATL step since this sample is tissue.
Genomic DNA samples were amplified with PCR using Q5 Hot Start High-Fidelity 2X Master Mix (New England BioLabs M0494). For example, the primer set for amplifying around the FANCF site 2 on-target site is NGS_FANCFs2_ON_F and NGS_FANCFs2_ON_R. After amplicon PCR, cleanup was performed using 1.4×AMPure XP (Beckman Coulter A63881) following the manufacturer's instructions. Dual-indexing PCR was performed using KAPA HiFi HotStart ReadyMix (Roche 07958935001) and PCR cleanup was performed using 1×AMPure XP. Samples were quantified using QuBit (Thermo Fisher Scientific), pooled, diluted, and loaded onto a MiSeq (Illumina). […]
Sequencing reads were either demultiplexed automatically using MiSeq Reporter (Illumina) or with a custom Python script to individual FASTQ files. For indel calling, sequencing reads were scanned for exact matches to two 20-bp sequences that flank +/−20 bp from the ends of the target sequence. If no exact matches were found, the read was excluded from analysis. […]

[5] = previous evaluation, ref [21]; cited from earlier work
[6] = test system: MRE11 at Cas9 TRA target sites in primary human T-cells; experiment: DISCOVER-Seq+ in primary human T-cells with Cas9 targeting TRA (CAR knock-in); assay type: cell-based
Excerpt: as §1

O=c1cc(-c2cccc3c2Sc2ccccc2S3)oc(N2CCOCC2)c1 [Ku-55933]
MRE11 recruitment at the target site (ChIP-qPCR) [1]: did not exhibit a clear effect

CCN1CCN(CC(=O)Nc2ccc(-c3cccc4c(=O)cc(N5CCOCC5)oc34)c3sc4ccccc4c23)CC1 [Ku-60648, 2-(4-ethylpiperazin-1-yl)-N-[4-(2-morpholin-4-yl-4-oxochromen-8-yl)dibenzothiophen-1-yl]acetamide]
average number of target sites identified across 5 biological replicates ([2]; 25 mg/kg b.i.d., mouse liver (18 sites with vehicle), p<0.05): 27 | target sites identified, sequencing reads pooled across all 5 replicates ([2]; 25 mg/kg b.i.d., mouse liver (51 with vehicle)): 101 | MRE11 ChIP-seq signal in liver ([2]; 25 mg/kg peritoneal b.i.d., versus without DNA-PKcs inhibition, p<1E-4): significantly increased MRE11 ChIP-seq signal | 53BP1 foci relative to BRCA1 ([3]; Cas9 with multi-target gRNA targeting over 100 locations): reduction in 53BP1 foci relative to BRCA1 | number of 53BP1 and BRCA1 foci in the absence of Cas9 (DNA damage by inhibitor alone) ([3]; without Cas9): did not change the number of 53BP1 and BRCA1 foci | MRE11 ChIP-seq enrichment at all discovered on- and off-target sites ([4]; K562, 12 hours after Cas9 delivery, FANCF site 2 or VEGFA site 2 gRNA, p<1E-3): significantly increased MRE11 ChIP-seq enrichment | fold increase in discovered Cas9 target sites versus without DNA-PKcs inhibition ([4]; VEGFA site 2 gRNA, K562): over 5 fold | total Cas9 target sites discovered ([4]; VEGFA site 2 gRNA, K562, with DNA-PKcs inhibition (36 sites without)): 181 | indel editing after Cas9 targeting ACTB (Cas9 editing of ACTB): reduction in editing | MRE11 recruitment at the target site (ChIP-qPCR) [1]: significantly increased MRE11 recruitment | estimated RPM enrichment normalized to the no drug sample (MRE11 ChIP-qPCR) ([1]; VEGFA site 2 (4 h, 12 h, 24 h) and HEK site 4 in HEK293T, FANCF site 2 in K562, versus without inhibitor, p=0.0001, n=14): significantly higher | penetration into tissue [5]: strongly penetrations into tissue including tumors | pharmacokinetics [5]: good pharmacokinetics | off-target sites identified genome-wide ([6]; Cas9 targeting TRA, 12 hours (4 with DISCOVER-Seq)): 20 | MRE11 enrichment at all discovered sites ([6]; Cas9 targeting TRA, versus DISCOVER-Seq without drug): significantly greater MRE11 enrichment | MRE11 enrichment in samples without Cas9 (negative control) ([6]; samples without Cas9): did not exhibit any change in enrichment

O=c1cc(N2CCOCC2)oc2c1ccc1ccccc12 [Nu7026, 2-(morpholin-4-yl)benzo (h) chromen-4-one]
MRE11 recruitment at the target site (ChIP-qPCR) [1]: significantly increased MRE11 recruitment

O=C(c1cc(Cc2n[nH]c(=O)c3ccccc23)ccc1F)N1CCN(C(=O)C2CC2)CC1 [Olaparib]
MRE11 recruitment at the target site (ChIP-qPCR) [1]: did not exhibit a clear effect

O=c1[nH]c(=S)[nH]c(N=Cc2ccccc2)c1N=Cc1ccccc1 [Scr7]
MRE11 recruitment at the target site (ChIP-qPCR) [1]: suppressed MRE11 recruitment
